In US11731933B2, “Device and method for the desalination of water by means of thermal deionisation and liquid-phase ion extraction liquid” (ADIONICS, priority 2015, dated 2023):
Converted amounts (≈) assume the structure as drawn. “And” between values parts separate entries of the source, which are not always exact repeats. Equal entries are not always repeated. Where two headings read alike, the source gives them in different places.

Assays:
[1] = Solubility in water (UV-visible spectrometry); format: physicochemical; details: for solubility: water
Source text: The hydrophobicity or solubility of a compound can be measured by standard methods and in particular by UV-visible spectrometry.

[2] = methanol; cited from earlier work
[3] = methanol, published complexing constants; cited from earlier work
[4] = NaCl extraction from 0.2M NaCl water by ASM/CEM composition, ion chromatography of treated water; details: ASM: 3TFMPhOH; CEM 0.2M; NaCl 0.2M water
Method: To 3 mL of 3-(trifluoromethyl)phenol, was added 217 mg of Dibenzo-18-crown-6 in order to obtain a formulation with 0.2 mole/L of DB18C6. This sealed formulation was then orbitally stirred at 500 rpm overnight after 1 mL of distilled water was added twice to allow water saturation of the whole.
The next morning, an aqueous 0.2 mol/L NaCl solution was prepared from twice distilled water, while the formulation that was stirred overnight was allowed to stand for decantation. A clear decantation of the two colorless phases is obtained in a few minutes. 3 mL of the organic extraction solution is then removed and transferred to a flask containing 3 mL of this salt water containing 0.2 M NaCl, then the flask is sealed and orbitally stirred (usually 500 rpm), for 3 hours and at room temperature. It is verified that droplets of the order of 1-2 mm are present in quantity at the selected stirring speed (400 to 900 rpm).
After stirring for 2 hours, stirring is stopped and the whole is left to stand for decantation for at least 10 minutes until the two phases are completely separated. The upper aqueous phase is then removed and then stirred and diluted for analysis of its salinity by a Metrohm Ion Chromatography Incorporating a suitable cation analysis column and a suitable anion analysis column. Similarly, the initial aqueous solution of 0.2M NaCl is also analyzed by this ion chromatography equipment to determine its relative concentration of sodium and chlorides. […]

[5] = as above; details: dichloromethane instead of 3TFMPhOH
Log P = format: physicochemical; details: for logP: Exp
pKa in water at 25° C. = format: physicochemical
Method: The pKa (or acid constant) is defined as pKa=−log10(Ka), where Ka is the acid dissociation constant which is measured in a standard manner for such pKa. The recommended standard measurement method for high, basic pKa is preferably that described by Popov and al, IUPAC—Guidelines for NMR measurements for determination of high and low pKa Pure Apl. Chem., Vol. 78, No. 3, pp. 663-675, 2006.

[6] = NaCl extraction from 0.4M NaCl water by ASM + Calix[4]Est in chloroform (Example 11)
Method: The extraction composition is obtained by solubilizing an amount of 4-tert-butyl Calix[4]arene tetraethyl Ester (CAS No. 97600-39-0) and ASM in chloroform CHCl3 to obtain a final concentration after solubilization of the CEM and ASM of 0.3 mol/L for Calix[4]Est and of 0.3 mol/L for ASM, respectively. These sealed formulations were then orbitally stirred at 500 rpm for 2 hours after adding an equivalent volume of twice distilled water to allow water saturation of the entire formulation and control of pH output (pH=7). The extraction composition is then put to stand to settle. All the compositions tested are stable and rapidly decanted (a few minutes at the most).
A 0.4 mol/L NaCl aqueous solution was prepared from twice distilled water.
The organic extraction composition is then slightly heated to promote solubilization of the compounds by hot air gun (temperature of about 50 to 60° C.) for a few seconds (10 to 30 seconds) until a clear solution is obtained.
3 mL of the organic extraction composition is then removed from the lower phase of the settled two-phase mixture and transferred to a vial containing 3 mL of salt water at 0.4 M NaCl and then the flask is sealed and orbitally stirred (at 500 revolutions per minute), for 2 hours at room temperature (RT), that is to say between 20 and 25° C. In the case of extraction at 60° C., magnetic stirring (at 500 revolutions per minute), for 2 hours, is carried out with indirect heating in a metal mold on a heating plate. It is verified that droplets of the order of 1-2 mm are present during these agitations in order to be certain to achieve equilibrium in the NaCl distribution between the two liquid phases at the end of stirring. The appearance of the organic and aqueous phases is clear and colorless or slightly cloudy.
After stirring for 2 hours, stirring is stopped and the solution is put to stand to settle within 10 minutes, at least until the two phases have completely separated off, at the temperature of the test. The upper aqueous phase is then removed and then stirred and diluted for analysis of its salinity by a Metrohm Ion Chromatograph incorporating a suitable cation analysis column and a suitable anion analysis column. Similarly, the initial aqueous solution of NaCl at 0.4M is also analyzed by this ion chromatograph to determine its relative molar concentration in sodium and in chlorides. AN extractions and analyzes were duplicated.

[7] = RT, CEM 0.3 Mol/L, ASM 0.3 Mol/L in CHCl3, 0.4 M NaCl

SMILES | Solubility in water [1] [µM] | pKa (pKa in water at 25° C.) | Log K(K+, MeOH, 25° C.) [2] | Log K(Na+, MeOH, 25° C.) [3] | Extraction rate at 23° C., Cl− [4] [%] | Extraction rate at 23° C., Na+ [4] [%] | Extraction rate at 23° C., mean NaCl [4] [%] | other results
OCc1cc(C(F)(F)C(F)(F)C(F)(F)C(F)(F)F)cc(C(F)(F)C(F)(F)C(F)(F)C(F)(F)F)c1 |  | 14 |  |  |  |  |  | solubility [1]: 0.5 µM (≈ 0.272 µg/mL)
c1ccc2c(c1)OCCOCCOCCOc1ccccc1OCCOCCOCCO2 [DB24C8, 6,7,9,10,12,13,20,21,23,24,26,27-Dodecahydrodibenzo[b,n][1,4,7,10,13,16,19,22] octaoxacyclotetracosine] |  |  | 3.61 | 2.25 and 2.35 | 37.1 | 35.5 | 36.3 | logP (Log P): 2.11
c1ccc2c(c1)OCCOCCOCCOCCO2 [B15C5, Benzo[b]-1,4,7,10,13-pentaoxa-cyclopentadecane] |  |  | 3.93 | 3.03 | 12.5 | 17.2 | 14.8 | logP (Log P): 0.91
OCc1cccc(C(F)(F)C(F)(F)C(F)(F)C(F)(F)F)c1 [ASM 5, [3-(Perfluorobutyl)phenyl]methanol] | < 77 | 14.7 |  |  |  |  |  | solubility [1]: < 77 µM
Oc1cccc(C(F)(F)F)c1 [ASM 1, 3-(Trifluoromethyl)phenol] |  | 8.68 |  |  |  |  |  | Log P (Log P): 2.95
OCc1cccc(C(F)(F)F)c1 [ASM 2, [3-(Trifluoromethyl)phenyl]methanol] | 32000 (≈ 5640 µg/mL) | 14.7 |  |  |  |  |  | 
OCc1cc(C(F)(F)F)c(C(F)(F)F)c(C(F)(F)F)c1 |  | 13.6 |  |  |  |  |  | solubility ([1]; read-out: Solubility in water): 390 µM (≈ 122 µg/mL)
OCc1cc(C(F)(F)C(F)(F)C(F)(F)F)cc(C(F)(F)C(F)(F)C(F)(F)F)c1 [ASM 6, [3,5-(Perfluoropropyl)phenyl]methanol] |  | 14.2 |  |  |  |  |  | solubility [1]: < 70 µM
OCc1cc(C(F)(F)F)cc(C(F)(F)F)c1 [ASM 3, [3,5-Bis(Trifluoromethyl)phenyl]methanol] |  | 14.7 |  |  |  |  |  | solubility ([1]; read-out: Solubility in water): 2290 µM (≈ 559 µg/mL); NaCl - 20° C. % ext (average) ([6]; 20° C., average molar extraction): 7.9%; Mol % Cl- extracted from the water to be treated ([6]; 60° C., CEM 0.3 Mol/L, ASM 0.3 Mol/L in CHCl3, 0.4 M NaCl): not detected; NaCl - 60° C. % ext (average) ([6]; 60° C., average molar extraction): 0.0%; Mol % Cl- extracted from the water to be treated [6, 7]: 8.2% and 8.8%; Mol % Na+ extracted from the water to be treated [6, 7]: 6.8% and 7.6%; Δ % ext ([6]; difference 20° C. minus 60° C.): 7.9%
c1ccc2c(c1)OCCOCCOCCOc1ccccc1OCCOCCO2 [DB21C7, 6,7,9,10,12,13,20,21,23,24-Decahydrodibenzo[b,k][1,4,7,10,13,16,19] heptaoxacyclohenicosine] |  |  | 4.19 | 2.4 | 20.7 | 9.4 | 15.2 | 

Now from value to molecule, other results behind:

Solubility in water [1] [µM] | pKa (pKa in water at 25° C.) | SMILES | Log K(K+, MeOH, 25° C.) [2] | Log K(Na+, MeOH, 25° C.) [3] | Extraction rate at 23° C., Cl− [4] [%] | Extraction rate at 23° C., Na+ [4] [%] | Extraction rate at 23° C., mean NaCl [4] [%] | other results
1100 (≈ 396 µg/mL) |  | c1ccc2c(c1)OCCOCCOc1ccccc1OCCOCCO2 [DB18C6, Dibenzo[b,k]-1,4,7,10,13,16-hexaoxacyclooctadecane] | 5.12 | 4.36-4.49 | 38.8 | 30.8 | 34.6 | NaCl extraction with the ASM replaced by dichloromethane [5]: ≤ 1.6%; logP (Log P): 2.2
36000 (≈ 13400 µg/mL) |  | C1CCC2OCCOCCOC3CCCCC3OCCOCCOC2C1 (stereo not shown) [DC18C6, Dicyclohexano-1,4,7,10,13,16-hexaoxacyclooctadecane] | 5.97 | 4.27 | 30.3 | 29.1 | 29.7 | 
3000 (≈ 1450 µg/mL) |  | C1CCC2OCCN3CCOCCOCCN(CCOC2C1)CCOC1CCCCC1OCC3 (stereo not shown) [DC[2.2.2], 5,6,14,15-DiCyclohexano-4,7,13,16,21,24-hexaoxa-1,10-diazabicyclo[8.8.8] hexacosane] | 6.92 | 6.02 |  |  |  | 
2500 (≈ 1180 µg/mL) |  | c1ccc2c(c1)OCCN1CCOCCOCCN(CCO2)CCOc2ccccc2OCC1 [DB[2.2.2], 5,6,14,15-DiBenzo-4,7,13,16,21,24-hexaoxa-1,10-diazabicyclo[8.8.8] hexacosane] | 8.74 | 7.60 |  |  |  | 
